Tested on: yeast genes (level of expressed mRNA)
Assay: DNA chip analysis of expressed mRNA of yeast genes after 2 h culture with a toxic chemical substance
Format: cell-based, Saccharomyces cerevisiae S288C
Method in brief: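 S. cerevisiae S288C grown at 25° C in YPD; toxicant added at log phase at growth-inhibitory, non-lethal levels for 2 h, untreated cells as control. Poly(A) mRNA reverse-transcribed with Cy3/Cy5-dUTP, hybridized to whole-genome chip at 65° C >12 h; value is fluorescence ratio versus untreated.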

Substance: sodium dodecylbenzosulfonate [(17)]
- level of expressed mRNA in the presence of chemical substance/in its absence (gene YAL012W): 0.9
- The level of expressed mRNA in the presence of chemical substance/absence: YAL014C (gene YAL014C): 1.1
- The level of expressed mRNA in the presence of chemical substance/absence: YAL017W (gene YAL017W): 1.0
- The level of expressed mRNA in the presence of chemical substance/absence: YAL018C (gene YAL018C): 0.9
- level of expressed mRNA in the presence of chemical substance/in its absence (gene YAL038W): 1.0
- level of expressed mRNA in the presence of chemical substance/in its absence (gene YAL044C): 1.4
- The level of expressed mRNA in the presence of chemical substance/absence: YAL049C (gene YAL049C): 1.6
- level of expressed mRNA in the presence of chemical substance/in its absence (gene YAL054C): 1.5
- The level of expressed mRNA in the presence of chemical substance/absence: YAR047C (gene YAR047C): 1.7
- The level of expressed mRNA in the presence of chemical substance/absence: YAR064W (gene YAR064W): 0.9
- level of expressed mRNA in the presence of chemical substance/in its absence (gene YAR071W): 0.7
- level of expressed mRNA in the presence of chemical substance/in its absence (gene YBL001C): 1.6
- The level of expressed mRNA in the presence of chemical substance/absence: YBL044W (gene YBL044W): 0.8
- The level of expressed mRNA in the presence of chemical substance/absence: YBL100C (gene YBL100C): 0.8
- The level of expressed mRNA in the presence of chemical substance/absence: YBR012C (gene YBR012C): 1.4
- The level of expressed mRNA in the presence of chemical substance/absence: YBR013C (gene YBR013C): 1.4
- level of expressed mRNA in the presence of chemical substance/in its absence (gene YBR014C): 1.0
- level of expressed mRNA in the presence of chemical substance/in its absence (gene YBR023C): 0.7
- level of expressed mRNA in the presence of chemical substance/in its absence (gene YBR029C): 0.6
- level of expressed mRNA in the presence of chemical substance/in its absence (gene YBR035C): 1.5
- level of expressed mRNA in the presence of chemical substance/in its absence (gene YBR050C): 1.5
- The level of expressed mRNA in the presence of chemical substance/absence: YBR051W (gene YBR051W): 1.1
- The level of expressed mRNA in the presence of chemical substance/absence: YBR063C (gene YBR063C): 1.2
- The level of expressed mRNA in the presence of chemical substance/absence: YBR066C (gene YBR066C): 1.2
- level of expressed mRNA in the presence of chemical substance/in its absence (gene YBR068C): 1.1
- level of expressed mRNA in the presence of chemical substance/in its absence (gene YBR111C): 1.4
- The level of expressed mRNA in the presence of chemical substance/absence: YBR124W (gene YBR124W): 0.9
- The level of expressed mRNA in the presence of chemical substance/absence: YBR129C (gene YBR129C): 1.0
- level of expressed mRNA in the presence of chemical substance/in its absence (gene YBR145W): 1.7
- The level of expressed mRNA in the presence of chemical substance/absence: YBR162C (gene YBR162C): 1.2
- level of expressed mRNA in the presence of chemical substance/in its absence (gene YBR183W): 1.4
- level of expressed mRNA in the presence of chemical substance/in its absence (gene YBR222C): 0.8
- The level of expressed mRNA in the presence of chemical substance/absence: YBR255W (gene YBR255W): 1.0
- The level of expressed mRNA in the presence of chemical substance/absence: YBR281C (gene YBR281C): 0.7
- The level of expressed mRNA in the presence of chemical substance/absence: YBR287W (gene YBR287W): 3.2
- level of expressed mRNA in the presence of chemical substance/in its absence (gene YBR299W): 1.0
- level of expressed mRNA in the presence of chemical substance/in its absence (gene YCL009C): 1.1
- The level of expressed mRNA in the presence of chemical substance/absence: YCL042W (gene YCL042W): 0.8
- The level of expressed mRNA in the presence of chemical substance/absence: YCL044C (gene YCL044C): 0.9
- The level of expressed mRNA in the presence of chemical substance/absence: YCL056C (gene YCL056C): 1.2
- level of expressed mRNA in the presence of chemical substance/in its absence (gene YCL064C): 0.3
- The level of expressed mRNA in the presence of chemical substance/absence: YCR007C (gene YCR007C): 2.6
- level of expressed mRNA in the presence of chemical substance/in its absence (gene YCR037C): 1.4
- level of expressed mRNA in the presence of chemical substance/in its absence (gene YCR048W): 1.2
- level of expressed mRNA in the presence of chemical substance/in its absence (gene YCR098C): 1.7
- level of expressed mRNA in the presence of chemical substance/in its absence (gene YDL022W): 1.0
- The level of expressed mRNA in the presence of chemical substance/absence: YDL046W (gene YDL046W): 1.2
- The level of expressed mRNA in the presence of chemical substance/absence: YDL089W (gene YDL089W): 1.0
- The level of expressed mRNA in the presence of chemical substance/absence: YDL173W (gene YDL173W): 1.3
- The level of expressed mRNA in the presence of chemical substance/absence: YDL193W (gene YDL193W): 0.9
- The level of expressed mRNA in the presence of chemical substance/absence: YDL233W (gene YDL233W): 1.1
- level of expressed mRNA in the presence of chemical substance/in its absence (gene YDR009W): 1.2
- level of expressed mRNA in the presence of chemical substance/in its absence (gene YDR019C): 1.2
- The level of expressed mRNA in the presence of chemical substance/absence: YDR071C (gene YDR071C): 0.9
- The level of expressed mRNA in the presence of chemical substance/absence: YDR078C (gene YDR078C): 0.9
- The level of expressed mRNA in the presence of chemical substance/absence: YDR090C (gene YDR090C): 1.1
- The level of expressed mRNA in the presence of chemical substance/absence: YDR109C (gene YDR109C): 1.2
- The level of expressed mRNA in the presence of chemical substance/absence: YDR128W (gene YDR128W): 0.9
- The level of expressed mRNA in the presence of chemical substance/absence: YDR133C (gene YDR133C): 0.6
- The level of expressed mRNA in the presence of chemical substance/absence: YDR140W (gene YDR140W): 1.3
- The level of expressed mRNA in the presence of chemical substance/absence: YDR221W (gene YDR221W): 1.1
- The level of expressed mRNA in the presence of chemical substance/absence: YDR250C (gene YDR250C): 0.9
- The level of expressed mRNA in the presence of chemical substance/absence: YDR271C (gene YDR271C): 1.2
- The level of expressed mRNA in the presence of chemical substance/absence: YDR278C (gene YDR278C): 0.7
- The level of expressed mRNA in the presence of chemical substance/absence: YDR281C (gene YDR281C): 1.5
- The level of expressed mRNA in the presence of chemical substance/absence: YDR316W (gene YDR316W): 0.6
- The level of expressed mRNA in the presence of chemical substance/absence: YDR338C (gene YDR338C): 0.9
- The level of expressed mRNA in the presence of chemical substance/absence: YDR366C (gene YDR366C): 1.2
- level of expressed mRNA in the presence of chemical substance/in its absence (gene YDR380W): 0.8
- level of expressed mRNA in the presence of chemical substance/in its absence (gene YDR410C): 1.0
- The level of expressed mRNA in the presence of chemical substance/absence: YDR421W (gene YDR421W): 0.7
- The level of expressed mRNA in the presence of chemical substance/absence: YDR425W (gene YDR425W): 1.2
- The level of expressed mRNA in the presence of chemical substance/absence: YDR485C (gene YDR485C): 0.8
- level of expressed mRNA in the presence of chemical substance/in its absence (gene YDR487C): 1.5
- level of expressed mRNA in the presence of chemical substance/in its absence (gene YDR502C): 0.9
- The level of expressed mRNA in the presence of chemical substance/absence: YDR504C (gene YDR504C): 1.2
- level of expressed mRNA in the presence of chemical substance/in its absence (gene YEL011W): 1.4
- level of expressed mRNA in the presence of chemical substance/in its absence (gene YEL020C): 1.2
- The level of expressed mRNA in the presence of chemical substance/absence: YEL044W (gene YEL044W): 1.4
- level of expressed mRNA in the presence of chemical substance/in its absence (gene YER026C): 1.7
- level of expressed mRNA in the presence of chemical substance/in its absence (gene YER069W): 1.1
- The level of expressed mRNA in the presence of chemical substance/absence: YER092W (gene YER092W): 1.4
- The level of expressed mRNA in the presence of chemical substance/absence: YER182W (gene YER182W): 0.8
- The level of expressed mRNA in the presence of chemical substance/absence: YFL042C (gene YFL042C): 1.1
- level of expressed mRNA in the presence of chemical substance/in its absence (gene YFR015C): 1.3
- The level of expressed mRNA in the presence of chemical substance/absence: YFR026C (gene YFR026C): 1.1
- The level of expressed mRNA in the presence of chemical substance/absence: YFR056C (gene YFR056C): 1.1
- level of expressed mRNA in the presence of chemical substance/in its absence (gene YGL001C): 1.9
- level of expressed mRNA in the presence of chemical substance/in its absence (gene YGL022W): 0.9
- level of expressed mRNA in the presence of chemical substance/in its absence (gene YGL039W): 0.6
- The level of expressed mRNA in the presence of chemical substance/absence: YGL041C (gene YGL041C): 1.0
- The level of expressed mRNA in the presence of chemical substance/absence: YGL045W (gene YGL045W): 1.3
- The level of expressed mRNA in the presence of chemical substance/absence: YGL057C (gene YGL057C): 0.9
- The level of expressed mRNA in the presence of chemical substance/absence: YGL088W (gene YGL088W): 0.5
